Measured values from ChEMBL document CHEMBL5727648, “5-aromatic alkynyl substituted benzamide compound and preparation method, pharmaceutical composition, and use thereof” (2020).
pIC50: −log10 of the molar value.

Target: Metabotropic glutamate receptor 5 (Homo sapiens, UniProt P41594)
Experiment: The Fluo 8-AM fluorescent dye is an […] derivative of Fluo 8 which can easily penetrate the cell membrane into the cell by culture. The fluorescent dye into the cell will be hydrolyzed by intracellular esterase, the resulting Fluo 8 cannot easily pass through the lipid bimolecular membrane as a polar molecule, and will retain in the cell, and combine with calcium (Ca2+) to produce fluoresces.Cells expressing GPCR receptor protein (mGluR5) were first calibrated with a calcium ion sensitive fluorescent probe and then stimulated with the compound. After stimulation, the activation of the receptor lead to the calcium ion mobilization, and the fluorescent probe captures the calcium ion to induce the fluorescence signal. The signal can be read by a fluorescent plate reader. The fluorescent plate reader contains a sampling head for compound addition, thus enabling the change of the fluorescence value of the compound be read in real time.
Format: cell-based

Chain of Metabotropic glutamate receptor 5 (P41594 whole entry): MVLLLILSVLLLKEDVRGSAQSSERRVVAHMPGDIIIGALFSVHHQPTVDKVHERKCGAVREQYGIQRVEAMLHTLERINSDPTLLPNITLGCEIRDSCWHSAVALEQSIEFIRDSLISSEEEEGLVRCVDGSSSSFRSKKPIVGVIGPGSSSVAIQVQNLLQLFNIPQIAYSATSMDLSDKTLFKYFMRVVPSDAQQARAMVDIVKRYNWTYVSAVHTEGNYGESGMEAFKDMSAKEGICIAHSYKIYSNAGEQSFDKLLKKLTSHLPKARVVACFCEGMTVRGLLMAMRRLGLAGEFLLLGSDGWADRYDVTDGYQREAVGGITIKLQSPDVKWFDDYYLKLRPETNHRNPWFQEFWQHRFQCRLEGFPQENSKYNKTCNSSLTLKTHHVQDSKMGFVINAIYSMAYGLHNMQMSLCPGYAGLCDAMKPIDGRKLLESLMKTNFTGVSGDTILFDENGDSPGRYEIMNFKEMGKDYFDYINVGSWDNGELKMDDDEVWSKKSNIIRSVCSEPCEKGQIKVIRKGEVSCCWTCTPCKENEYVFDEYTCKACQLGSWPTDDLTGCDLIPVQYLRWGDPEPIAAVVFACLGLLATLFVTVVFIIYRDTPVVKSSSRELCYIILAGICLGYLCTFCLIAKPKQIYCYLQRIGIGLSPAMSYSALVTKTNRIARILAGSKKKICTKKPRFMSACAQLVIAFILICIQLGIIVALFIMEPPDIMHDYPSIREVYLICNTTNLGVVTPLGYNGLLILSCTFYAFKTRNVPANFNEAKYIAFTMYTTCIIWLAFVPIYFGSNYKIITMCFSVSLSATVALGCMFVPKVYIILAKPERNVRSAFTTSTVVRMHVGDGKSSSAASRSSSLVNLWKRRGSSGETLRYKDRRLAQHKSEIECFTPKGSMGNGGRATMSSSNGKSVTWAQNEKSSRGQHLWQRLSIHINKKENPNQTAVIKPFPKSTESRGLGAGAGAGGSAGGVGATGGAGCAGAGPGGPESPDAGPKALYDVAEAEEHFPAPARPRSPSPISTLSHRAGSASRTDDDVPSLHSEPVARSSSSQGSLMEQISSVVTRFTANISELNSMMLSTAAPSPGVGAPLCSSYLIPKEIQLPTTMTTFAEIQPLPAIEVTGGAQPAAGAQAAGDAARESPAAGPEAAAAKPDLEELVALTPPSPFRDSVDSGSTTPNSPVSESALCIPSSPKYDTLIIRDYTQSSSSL

pIC50 | Structure (SMILES)
7.84 | Cc1nc(C#Cc2cccc(C(=O)N3CCc4ccccc4C3)c2)cs1
7.85 | Cc1nc(C#Cc2cccc(C(=O)Nc3cccnc3)c2)cs1
